Results reported in patent US8198450B2, “Quinolinone derivatives and their pharmaceutical compositions” (Novartis AG, priority 2006, dated 2012).

Assays:
[1] = clinic: treatment of asthma and chronic obstructive pulmonary disease; assay type: in vivo
hygroscopicity = assay type: physicochemical
solubility in ethanol = assay type: physicochemical
[2] = equilibration in solvents, crystalline form; assay type: physicochemical; conditions: 1 day at 25° C. in water, ethanol and isopropanol
stability of the salt = assay type: physicochemical; conditions: before and after micronisation, with or without excipients, with and without moisture

For `CCc1cc2c(cc1CC)CC(NC[C@H](O)c1ccc(O)c3[nH]c(=O)ccc13)C2.O=C(O)/C=C\C(=O)O` [(R)-5-[2-(5,6-diethyl-indan-2-ylamino)-1-hydroxyethyl]-8-hydroxy-1H-quinolin-2-one maleate], the “tested in the clinic for the treatment of asthma and chronic obstructive pulmonary disease” value ([1]; clinic) was “tested favourably” and the “cough exhibited by certain patients on administration” value ([1]; particularly first administration) was “cough”.

For `CCc1cc2c(cc1CC)CC(NC[C@H](O)c1ccc(O)c3[nH]c(=O)ccc13)C2` [Example 12, (R)-5-[2-(5,6-diethyl-indan-2-ylamino)-1-hydroxyethyl]-8-hydroxy-1H-quinolin-2-one glycolate], the hygroscopicity (hygroscopicity) was “substantially not hydroscopic”, the solubility in ethanol (solubility in ethanol) was “low” and the “change of crystalline form after equilibration” value (shortened to “change of crystalline form”) [2] was “no change of crystalline form”. The stability (stability of the salt) was “especially stable”.

With `CC(=O)O.CCc1cc2c(cc1CC)CC(NC[C@H](O)c1ccc(O)c3[nH]c(=O)ccc13)C2` [Example 15, (R)-5-[2-(5,6-diethyl-indan-2-ylamino)-1-hydroxyethyl]-8-hydroxy-1H-quinolin-2-one acetate] the hygroscopicity (hygroscopicity) was “substantially not hydroscopic”, the solubility in ethanol (solubility in ethanol) was “low” and the “change of crystalline form” value [2] was “no change of crystalline form”. For the same compound, the stability (stability of the salt) was “especially stable”.

With `CCc1cc2c(cc1CC)CC(NC[C@H](O)c1ccc(O)c3[nH]c(=O)ccc13)C2.O=C(O)CC(=O)O` [Example 21, (R)-5-[2-(5,6-diethyl-indan-2-ylamino)-1-hydroxyethyl]-8-hydroxy-1H-quinolin-2-one hydrogen malonate] the hygroscopicity (hygroscopicity) was “substantially not hydroscopic”, the solubility in ethanol (solubility in ethanol) was “low” and the “change of crystalline form” value [2] was “no change of crystalline form”. The stability (stability of the salt) was “especially stable”.
